The target in the experiment is T1, Fenugreek β-amylase.
T1 construct: gene BMY1; native, purified from ungerminated seeds (acetone, DEAE-cellulose, glycogen precipitation)
The experiment in a line: starch hydrolysis assay, Dixon plot. It is filed as biochemical, Trigonella foenum-graecum. The following applies: competitive; starch substrate, pH 5.0, 30°C, 10 min preincubation.

`OC[C@H]1O[C@@](CO)(O[C@H]2O[C@H](CO)[C@@H](O)[C@H](O)[C@H]2O)[C@@H](O)[C@@H]1O` [sucrose]: the affinity, expressed as Ki, was 2.32 mM. Then `OC[C@H]1O[C@@H]2O[C@H]3[C@H](O)[C@@H](O)[C@@H](O[C@H]4[C@H](O)[C@@H](O)[C@@H](O[C@H]5[C@H](O)[C@@H](O)[C@@H](O[C@H]6[C@H](O)[C@@H](O)[C@@H](O[C@H]7[C@H](O)[C@@H](O)[C@@H](O[C@H]1[C@H](O)[C@H]2O)O[C@@H]7CO)O[C@@H]6CO)O[C@@H]5CO)O[C@@H]4CO)O[C@@H]3CO` [α-cyclodextrin], with 3.97 mM.
